Reference: US12029715B2, “Precursor compounds for providing retinoids of the vitamin A5 pathway and uses thereof” (UNIVERSITY OF DEBRECEN, priority 2015, dated 2024)
Entries after “also recorded” stand apart in the source; their conditions may differ. Values belong to the compound of their own block, whether it stands above or below them.

Assays:
[1] = system: differentiating monocyte-derived human dendritic cells; test: DNA microarray in differentiating monocyte-derived dendritic cells; type: cell-based
Method: The generation and transcriptional analysis of differentiating DCs were performed as described previously [Szeles L et al. 2010]. Microarray data were deposited into the Gene Expression Omnibus database under accession no. GSE48573.
The generation and analysis of differentiating DCs were performed as described previously [Szeles L et al. 2010] with minor modifications. Briefly, human monocytes were isolated from healthy volunteer's buffy coat, obtained with a Regional Ethical Board permit from the Regional Blood Bank and isolated by Ficoll gradient centrifugation followed by immunomagnetic cell separation, and were cultured in the presence of GM-CSF and IL-4. Differentiating DCs were stimulated 18 h after […] by various agonists for 12 h. The ligands were used in the following concentrations: 10 μM (R)-9CDHRA, 10 μM (S)-9CDHRA, 1 μM 9cisRA, 100 nM LG100268, 1 μM GW3965, 1 μM Rosiglitazone (RSG), 1 μM GW1516, 100 nM AM580. Experiments were performed in biological triplicates. Samples were processed and hybridized to Human Genome U133 Plus 2.0 Arrays. Data were analysed using to GeneSpring 12.6.1 software. In detail, normalization was performed using RMA summarization algorithm. […] Microarray data were deposited into the Gene Expression Omnibus database under accession no. GSE48573.

hRXRα LBD = target: T1, hRXRα LBD (Homo sapiens, UniProt P19793); test: ESI-MS in non-denaturing conditions, binding to RXR LBD; set-up: cDNAs encoding hRXRα LBD (223-462); His-tag (N); made in house; conditions: 5-fold molar excess of ligand
T1 sequence (P19793 223-462): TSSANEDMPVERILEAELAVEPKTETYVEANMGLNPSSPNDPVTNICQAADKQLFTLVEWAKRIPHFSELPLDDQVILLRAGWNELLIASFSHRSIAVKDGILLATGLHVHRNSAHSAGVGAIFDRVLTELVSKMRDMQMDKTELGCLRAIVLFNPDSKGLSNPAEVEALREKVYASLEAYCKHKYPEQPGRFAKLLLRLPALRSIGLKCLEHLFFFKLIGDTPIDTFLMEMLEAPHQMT
Method: (§1) cDNAs encoding hRXRα LBD (223-462), hRARα LBD (153-421), hRARBβ LBD (169-414) and hRARγ LBD (178-423) were cloned into pET28b vector to generate N-terminal Histag fusion proteins. Purification was carried out as previously described [Lippert W P et al. 2009, Osz J, et al. 2012], including a metal affinity chromatography and a gel filtration. For details of sample preparation and ESI-MS analyses see below.
cDNAs encoding hRXRαLBD (223-462), hRARαLBD (153-421), hRARβLBD (169-414) and hRARγ LBD (178-423) were cloned into pET28b vector to generate N-terminal His-tag fusion proteins. Purification was carried out as previously described [Lippert W P et al. 2009, Osz J, et al. 2012], including a metal affinity chromatography and a gel filtration. Prior to ESI-MS analysis, samples were desalted on Zeba Spin desalting columns (Pierce) in 150 mM ammonium acetate (pH 8.0). ESI-MS measurements were performed on an electrospray time-of-flight mass spectrometer (MicrOTOF, Bruker Daltonics). Purity and homogeneity of the proteins were verified by mass spectrometry in denaturing conditions (samples were diluted at 2 pmol/μl in a 1:1 water-acetonitrile mixture (v/v) acidified with 1% formic acid). The mass measurements of the noncovalent complexes were performed in ammonium acetate (200 mM; pH 8.0). Samples were diluted to 8 pmol/ml in the previous buffer and continuously infused into the ESI ion source at a flow rate of […] through a Harvard syringe pump (Harvard Apparatus model 11). A careful optimization of the interface parameters was performed to obtain the best sensitivity and spectrum quality without affecting the noncovalent complexes stability. In particular, the capillary exit (CE) ranged from 60 to 150 V with a vacuum interface pressure of 2.3 mbar and was set to 80 V. For ligand-interaction analysis, ligands were added to the proteins in a 5-fold molar excess.

hRARα, β and γ LBDs = test: ESI-MS in non-denaturing conditions, binding to RAR LBD isotypes; set-up: species or system human; conditions: 5-fold molar excess of ligand
Method: as §1
cDNAs encoding hRXRαLBD (223-462), hRARαLBD (153-421), hRARβLBD (169-414) and hRARγ LBD (178-423) were cloned into pET28b vector to generate N-terminal His-tag fusion proteins. Purification was carried out as previously described [Lippert W P et al. 2009, Osz J, et al. 2012], including a metal affinity chromatography and a gel filtration. Prior to ESI-MS analysis, samples were desalted on Zeba Spin desalting columns (Pierce) in 150 mM ammonium acetate (pH 8.0). ESI-MS measurements were performed on an electrospray time-of-flight mass spectrometer (MicrOTOF, Bruker Daltonics). Purity and homogeneity of the proteins were verified by mass spectrometry in denaturing conditions (samples were diluted at 2 pmol/μl in a 1:1 water-acetonitrile mixture (v/v) acidified with 1% formic acid). The mass measurements of the noncovalent complexes were performed in ammonium acetate (200 mM; pH 8.0). […]

Rbp1−/− and Rxrγ−/− mice = test: Y-maze spontaneous alternation; type: in vivo, mouse; conditions: 5-6 hours prior to testing
Method: The Y-maze apparatus and the procedure were as previously described (Wietrzych et al., 2005). Briefly, each mouse was placed at the end of one arm and allowed to explore freely the apparatus for 5 min, with the experimenter out of the animal's sight. Spontaneous alternation performance (SAP) was assessed visually by scoring the pattern of entries into each arm and expressed as a percentage of total number of entries, discounting the first two visits. Total entries were scored as an index of ambulatory activity in the Y-maze, but none of tested mice had to be excluded due to low locomotor performance (score below 9 entries).
(§2) Vehicle treatments consisted of 3% ethanol and 3% DMSO solution in sunflower oil. Treatments were administered by intraperitoneal injections at volume/weight ratio 3 ml/kg between 8-10 am and 5-6 h before the test as previously validated (Wietrzych-Schindler M, 2011).

[2] = system: Rbp1−/−, Rxrγ−/− and WT mice; test: Delayed non-match to place (DNMTP) working memory task in the T-maze; type: in vivo, mouse; conditions: ITI of 6 min
Method: Behaviorally naïve groups of mice were tested in the DNMTP (delayed non-match to place) procedure in the T-maze according to a protocol previously described (Wietrzych et al., 2005), with modifications to facilitate pharmacological tests (Wietrzych-Schindler et al., 2011). Spontaneous alternation was evaluated in the Ymaze apparatus according to protocol described in detail below.
Specifically, in the present protocol, animals were first trained for 10 consecutive days with minimal inter-trial intervals (ITI) of about 15 sec, which was necessary to attain the criterion of 90% or more of correct choices during […] consecutive days (days 9-10). After this period ITI was increased semi-randomly by blocks of 3-6 min during 5 consecutive days (days 11-15 indicated) to determine “test ITI” for each animal, which was defined as the shortest ITI at which mice perform at chance level. From day 16 mice were tested using corresponding “test ITI” delays following vehicle injection on the day 16 (to test for the effect of vehicle alone) and following 9CDHROL (40 mg/kg) injection on day 17. Three mice were excluded from testing since their latency to choose the arm during the retention phase exceeded 3 min in more than one trial/day on three consecutive days (exclusion criterion). On the day 18 mice were again injected (IP) with 9CDHROL (40 mg/kg) and 9 hours later sacrificed for chemical analyses. Mice which received vehicle injections on three consecutive days were used as vehicle-treated controls for analyses of 9CDHROL metabolism. An additional group of 3 naïve mice was also injected with 9CDHROL (40 mg/kg) to test for 9CDHROL metabolism following acute treatment.
In this variant, animals were first trained for 9 consecutive days of with minimal inter-trial intervals (ITI) of about 15 sec, which was necessary to attain the criterion of 90% or more of correct choices during three consecutive days (days 7-9). After this period ITI was increased semi-randomly to 180, 360, 720 and for some WT mice also 1080 seconds so that each animal was tested 6 times with each interval during four consecutive days (days 10-13 indicated). From day 13 mice were tested only twice per week beginning with training session on day one (with minimal, 15 sec ITIs) and testing pharmacological treatments on the second day. Only one pharmacological treatment was tested every 7 days. To test pro-mnemonic activities of UVI2108 and (R)-9CDHRA inventors used a minimal ITI, at which mice performed at chance level (50%) and which was 6 min for the Rbp1−/− or Rxrγ−/− groups and 12 min for most WT mice with exception of two mice tested at 18 min. Four mice (two wild types and one of each knockout line), were excluded from testing since their latency to choose the arm during the retention phase exceeded 3 min in more than one trial/day on three consecutive days (exclusion criterion).
For behavioral analysis, 9CDHROL and 9CDHBC were dissolved in ethanol, and then mixed with sunflower oil, so that the final solution contained 3% ethanol. Vehicle treatments consisted of 3% ethanol solution in sunflower oil. For memory studies treatments with 9CDHRA were administered by intraperitoneal injections at volume/weight ratio 3 ml/kg at 7 am and 7 hours before the beginning of testing. For tests with animal model of chronic social defeat, different treatments were administered by intraperitoneal injections at volume/weight ratio 3 ml/kg at 10 mg/kg for each substance between 5-6 pm every second day of stress protocol immediately after the stress session starting from day 1 of the stress protocol.
as §2

[3] = system: Rbp1−/−, Rxrγ−/− and WT mice; test: Forced swim test after acute treatment; type: in vivo, mouse; conditions: Rbp1−/− mice, acute i.p. treatment 5-6 h before the test
Method: (§3) The forced swim paradigm was carried out between 1 pm and 4 pm in a 3-litre glass beaker half-filled with water at 22-23° C. (the water depth was 17 cm). All mice were tested only once in this task. To this end, each mouse was lowered gently into the water and the time of immobility was scored during a 6-minute testing period. The mouse was judged immobile when it floated in an upright position and made only small movements to keep its head above the water. After 6 min, the mouse was taken out of the water, left to dry under a red light lamp and returned to its home cage. The immobility scores of each animal were used as an index of despair behavior.
as §2
as §3, with “paradigm (Dalvi and Lucki, 1999)” for “paradigm”, “2-litre” for “3-litre”

[4] = system: human oligodendrocytes cell cultures; test: Metabolic conversion in human oligodendrocytes cell culture (HPLC-MS); type: in vitro ADME; conditions: 10^−6M, n=3
Method: (§4) In a slight variant of the method, after reaching confluency of 80% cells were treated with 9CDHROL, 9CDH-retinyl ester (acetate, 9CDHROL-ES), 9CDHRA, 9CDH-retinoyl ester, (ethyl ester, 9CDHRA-ES), ATROL, 9CDHBC, 9CBC and ATBC at a concentration of 10^−6 M or ethanol at corresponding concentration was used as control vehicle treatment. Cells were harvested 18 hours later, centrifuged, weighted, frozen in liquid nitrogen and stored at −80° C. until analyses.
(§5) High performance liquid chromatography mass spectrometry (LC-MS) was carried out as described in Example 4.
9CDHRA levels including standard deviation in human oligodendrocytes cultures were assessed using HPLC-MS analysis after control treatment using ethanol (CTRL), as well as ATROL treatment (ATROL), 9CBC treatments (9CBC), ATBC treatments (ATBC), 9CDHBC treatment (9CDHBC), 9CDHROL treatments (9CDHROL), 9CDHROL-ester treatments (9CDHROL-ES), 9CDHRA treatments (9CDHRA) or 9CDHRA-ester treatments (9CDHRA-ES), each with 10^−6M concentration and n=3 (FIG. 14D).

[5] = system: oligodendrocytes cell line 158N; test: Metabolic conversion in mouse oligodendrocytes cell culture (LC-MS); type: in vitro ADME
Method: Normal immortalized oligodendrocytes cell line 158N was cultured as previously reported (Feutz et al., 2001). Expediently, cells were cultured in supplemented with 5% calf serum (Invitrogen, France). When cells attained 70% of confluency they were treated with 10^−2 M ethanol solution of one of the following compounds: 9CDHROL, 9CDHROL-acetate, 9CDHRA-ethyl ester. 9CDHRA and ethanol as controls, vehicle treatment. 18 h after treatment cells were collected in amber Eppendorf tubes and stored at −80° C. until analyses. Treatments and cell collection were carried out in light limited conditions to avoid photolysis of retinoids.
as §4, §5

[6] = Mouse oral supplementation, retinoid levels in serum, brain and liver (LC-MS); type: in vivo; conditions: mice
[7] = per os 40 mg/kg, 11 h after treatment

binding to RXR LBD in ESI-MS (hRXRα LBD): lower affinity
binding to RAR LBD isotypes in ESI-MS (hRARα, β and γ LBDs): bind to all RAR LBD isotypes
Compound: CC1=C(/C=C/C(C)=C\C=C\[C@@H](C)CC(=O)O)C(C)(C)CCC1 [(S)-9CDHRA, (9Z,13S)-13,14-Dihydroretinoic Acid]
overlap in transcriptional changes with 9CRA [1]: about 80%
expression of genes that are direct targets of RXR permissive heterodimers (LXR-RXR, PPAR-RXR) and RAR-RXR ([1]; 9CDHRA 10 μM, 9CRA 1 μM, LG268 100 nM, GW3965 1 μM, RSG 1 μM, GW1516 1 μM, AM580 100 nM): induced the expression of genes

Compound: CC1=C(/C=C/C(C)=C/C=C/C(C)=C/C(=O)O)C(C)(C)CCC1 [ATRA, all-trans-retinoic acid]
working memory in spontaneous alternation in the Y-maze (Rbp1−/− and Rxrγ−/− mice; Rbp1−/− mice, ATRA 5 mg/kg, UVI2108 1 mg/kg, MA 5 mg/kg, DHA 1 mg/kg, TTNPB 5 mg/kg): normalised; also recorded: pro-mnemonic effects
working memory in spontaneous alternation in the Y-maze (Rbp1−/− and Rxrγ−/− mice; Rxrγ−/− mice, same doses): not
working memory performance in DNMTP task ([2]; Rbp1−/− mice, acute treatment, (R)-9CDHRA 1 or 2 mg/kg): reversed memory deficits
working memory performance in DNMTP task ([2]; Rxrγ−/− mice): remained ineffective
immobility (despair) in the forced swim test [3]: reduced significantly immobility time

Compound: CC1=C(/C=C/C(C)=C/C=C/C(C)=C/CO)C(C)(C)CCC1 [ATROL, all-trans-retinol, reference compound]
9CDHRA levels in cells after treatment (metabolism / accumulation) [4]: not converted to 9CDHRA
ATROL levels in cells after treatment ([5]; 10^−6M): strongly and significantly increased ATROL levels
9CDHROL levels in cells after treatment ([5]; 10^−6 M, 18 hours): no or just a weak increase; also recorded: weak significant increase
conversion to 9CDHRA ([5]; data not shown): not converted to 9CDHRA
ATROL levels in mouse organs after treatment ([6]; oral gavage 40 mg/kg): strongly and significantly increased ATROL levels
9CDHRA levels in serum, brain and liver after treatment (conversion to 9CDHRA) [6, 7]: significantly increased levels in brain and liver
9CDHROL levels in serum, brain and liver after treatment [6, 7]: did not increase
